# Test results taken from patent US20250288591A1, “TRIMEPRAZINE FOR USE IN TREATING TRIGEMINAL NEURALGIA AND FOR REDUCING PAIN RELATED THERETO” (UNDAUNTED BIO, INC., priority 2022, published 2025).
# Tests used:
# mu-opioid receptors = mu-opioid receptors (Homo sapiens, UniProt P35372); conditions: relative to morphine; cited from earlier work
# [1] = Observed effect of trimeprazine on pain of post-herpetic neuralgia and trigeminal neuralgia; conditions: in vivo
# From the text: Post-herpetic pain involves the dorsal root ganglion (DRG), and trigeminal neuralgia involves the trigeminal ganglion (TG). Both the DRG and the TG are involved in the perception of itch and pain. Chronic neuropathic pain is a hypersensitivity state that results from peripheral and central sensitization. It is increasingly appreciated that chronic itch and chronic cough are also hypersensitivity syndromes.
# [2] = Case report: patient with classic trigeminal neuralgia treated with trimeprazine; format: in vivo, human
# From the text: A middle-aged patient suffers from classic trigeminal neuralgia presenting with sharp, lancinating, severe pain in their left face precipitated by showering, eating, facial animation, touch of their facial skin and nose, and brushing their teeth. The episodes of pain are initiated by the stimuli above and immediately stop all other activity until they subside in several seconds. Their behavior is modified to avoid the stimuli above, even affecting how they speak and eats. […] Their daily activities are dominated by fear of inducing another attack. […] They had no remedy for these terrible pains before treatment with trimeprazine. The patient began treatment with trimeprazine 5 mg morning and evening. The second day of the course the intensity and frequency of the attacks were in decline. […] Since then, they have noted some discomfort in their face but not the sharp, almost unbearable pain of before. […] On most days they take no medication now. […] They note that this is a common side-effect for them to experience if a medication has any potential for causing drowsiness.
# histamine H1-receptor = conditions: more potent than Z-triprolidine; cited from earlier work
# [3] = after application of 5% lidocaine plaster to skin; cited from earlier work
# [4] = PHN; study in Japan; cited from earlier work
# [5] = 100-400 mg/d; 8 patients with classic TN; cited from earlier work
# [6] = 23 patients, add-on therapy; cited from earlier work
# [7] = 10 patients with TN; cited from earlier work
# Chain of mu-opioid receptors (P35372 whole entry): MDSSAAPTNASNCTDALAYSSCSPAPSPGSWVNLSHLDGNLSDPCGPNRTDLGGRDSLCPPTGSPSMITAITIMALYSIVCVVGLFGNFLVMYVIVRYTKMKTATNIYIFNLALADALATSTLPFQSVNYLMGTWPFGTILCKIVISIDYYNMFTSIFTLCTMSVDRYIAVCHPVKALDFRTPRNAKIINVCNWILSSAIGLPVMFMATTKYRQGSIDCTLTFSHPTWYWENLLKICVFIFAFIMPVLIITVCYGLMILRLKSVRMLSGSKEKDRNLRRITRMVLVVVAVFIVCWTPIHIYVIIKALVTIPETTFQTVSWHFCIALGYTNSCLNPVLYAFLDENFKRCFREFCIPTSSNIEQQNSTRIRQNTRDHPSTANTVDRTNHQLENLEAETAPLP
compound,measurement,setting,value
CC[C@@H](c1cccc(O)c1)[C@@H](C)CN(C)C [Tapentadol],"potency in binding mu-opioid receptors, times less potent than morphine",mu-opioid receptors,18 times
CC(CN(C)C)CN1c2ccccc2Sc2ccccc21 (stereo not drawn) [trimeprazine],effect on pain of post-herpetic neuralgia and trigeminal neuralgia,[1],observed to treat the pain
same,side-effects,"[2]; 5 mg tablets, one patient",no side-effects other than drowsiness
same,pain,"[2]; after four days of medication, 5 mg morning and evening",all pain was gone
same,residual discomfort in face,"[2]; later use, ½ to 1 pill of 5 mg once or twice a day",successfully alleviated
same,intensity and frequency of the attacks,"[2]; second day of the course, 5 mg morning and evening, one patient",in decline
Cc1ccc(/C(=C\CN2CCCC2)c2ccccn2)cc1 [E-triprolidine],potency relative to Z-triprolidine,histamine H1-receptor,1000 fold
CCN(CC)CC(=O)Nc1c(C)cccc1C [Lidocaine],share of the drug that reaches the systemic circulation,[3],3%
"CC(C)C[C@H](CN)CC(=O)O [pregabalin, Pregabalin]",analgesic property relative to gabapentin,[4],6 times
CC1(C)O[C@@H]2[C@@H](CO[C@@]3(COS(N)(=O)=O)OC(C)(C)O[C@@H]23)O1 [Topiramate],patients in whom the drug was found effective,[5],75%
"CC[C@@H](C(N)=O)N1CCCC1=O [levetiracetam, Levetiracetam]",reduction in number of daily attacks,[6],62%
same,improvement,[7],50-90%
